In US20010034342A1, “Substituted urea and isothiourea derivatives as no synthase inhibitors” (priority 1993, published 2001):

Tests used:
human placental NOS = target: T1, human placental NOS (Homo sapiens, UniProt P29474); assay: Assay for human placental NOS (citrulline formation); assay type: biochemical; conditions: concentration not given
T1 construct: Purification of NOS from human placenta; from tissue; host or cells: fresh human placenta

inducible human NOS = target: T2, inducible human NOS (Homo sapiens, UniProt P35228); assay: Assay for inducible human NOS (citrulline formation), enzyme from cytokine-induced DLD-1 cells; assay type: biochemical; conditions: concentration not given
T2 construct: Purification of NOS cytokine-induced human colorectal adenocarcinoma DLD-1 cells; endogenous in cells; host or cells: DLD-1 (ATCC No. CCL 221), induced with IFN-gamma, IL-6, TNF and IL-1beta
T2 sequence (P35228 whole entry): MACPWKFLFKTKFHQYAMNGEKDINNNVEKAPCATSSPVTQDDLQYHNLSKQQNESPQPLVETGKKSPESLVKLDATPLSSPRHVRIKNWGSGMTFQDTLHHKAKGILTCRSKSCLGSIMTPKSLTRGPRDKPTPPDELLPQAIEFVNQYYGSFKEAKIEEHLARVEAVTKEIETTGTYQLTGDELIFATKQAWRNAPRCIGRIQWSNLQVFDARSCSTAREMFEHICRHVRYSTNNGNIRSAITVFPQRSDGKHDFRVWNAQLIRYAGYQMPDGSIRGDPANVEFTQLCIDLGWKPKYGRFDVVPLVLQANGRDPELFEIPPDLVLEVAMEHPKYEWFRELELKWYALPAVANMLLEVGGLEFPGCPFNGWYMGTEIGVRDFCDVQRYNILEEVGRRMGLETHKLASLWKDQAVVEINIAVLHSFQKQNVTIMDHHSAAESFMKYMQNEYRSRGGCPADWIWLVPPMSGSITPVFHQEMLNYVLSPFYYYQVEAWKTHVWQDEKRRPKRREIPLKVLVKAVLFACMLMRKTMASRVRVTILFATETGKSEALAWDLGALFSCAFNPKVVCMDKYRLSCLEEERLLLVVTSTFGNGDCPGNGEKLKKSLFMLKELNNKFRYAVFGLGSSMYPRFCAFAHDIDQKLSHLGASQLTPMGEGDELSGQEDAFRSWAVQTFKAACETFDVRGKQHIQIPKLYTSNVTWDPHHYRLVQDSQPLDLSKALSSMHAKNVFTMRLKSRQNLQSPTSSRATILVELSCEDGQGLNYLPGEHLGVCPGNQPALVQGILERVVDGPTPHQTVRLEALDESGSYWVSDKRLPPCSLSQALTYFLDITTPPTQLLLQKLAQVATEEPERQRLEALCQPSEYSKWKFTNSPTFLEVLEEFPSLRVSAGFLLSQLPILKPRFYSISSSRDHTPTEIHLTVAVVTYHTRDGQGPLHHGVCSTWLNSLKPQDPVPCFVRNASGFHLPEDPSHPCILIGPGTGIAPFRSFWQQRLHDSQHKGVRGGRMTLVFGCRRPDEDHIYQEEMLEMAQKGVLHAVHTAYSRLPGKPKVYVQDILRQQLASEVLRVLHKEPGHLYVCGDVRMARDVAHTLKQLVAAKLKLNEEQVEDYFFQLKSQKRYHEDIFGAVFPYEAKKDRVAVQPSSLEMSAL

Human brain NOS = target: T3, Human brain NOS (Homo sapiens, UniProt P29475); assay: Human brain NOS enzyme activity assay; assay type: biochemical
T3 construct: Purification of NOS from human brain; from tissue; host or cells: frozen human brain
T3 sequence (P29475 whole entry): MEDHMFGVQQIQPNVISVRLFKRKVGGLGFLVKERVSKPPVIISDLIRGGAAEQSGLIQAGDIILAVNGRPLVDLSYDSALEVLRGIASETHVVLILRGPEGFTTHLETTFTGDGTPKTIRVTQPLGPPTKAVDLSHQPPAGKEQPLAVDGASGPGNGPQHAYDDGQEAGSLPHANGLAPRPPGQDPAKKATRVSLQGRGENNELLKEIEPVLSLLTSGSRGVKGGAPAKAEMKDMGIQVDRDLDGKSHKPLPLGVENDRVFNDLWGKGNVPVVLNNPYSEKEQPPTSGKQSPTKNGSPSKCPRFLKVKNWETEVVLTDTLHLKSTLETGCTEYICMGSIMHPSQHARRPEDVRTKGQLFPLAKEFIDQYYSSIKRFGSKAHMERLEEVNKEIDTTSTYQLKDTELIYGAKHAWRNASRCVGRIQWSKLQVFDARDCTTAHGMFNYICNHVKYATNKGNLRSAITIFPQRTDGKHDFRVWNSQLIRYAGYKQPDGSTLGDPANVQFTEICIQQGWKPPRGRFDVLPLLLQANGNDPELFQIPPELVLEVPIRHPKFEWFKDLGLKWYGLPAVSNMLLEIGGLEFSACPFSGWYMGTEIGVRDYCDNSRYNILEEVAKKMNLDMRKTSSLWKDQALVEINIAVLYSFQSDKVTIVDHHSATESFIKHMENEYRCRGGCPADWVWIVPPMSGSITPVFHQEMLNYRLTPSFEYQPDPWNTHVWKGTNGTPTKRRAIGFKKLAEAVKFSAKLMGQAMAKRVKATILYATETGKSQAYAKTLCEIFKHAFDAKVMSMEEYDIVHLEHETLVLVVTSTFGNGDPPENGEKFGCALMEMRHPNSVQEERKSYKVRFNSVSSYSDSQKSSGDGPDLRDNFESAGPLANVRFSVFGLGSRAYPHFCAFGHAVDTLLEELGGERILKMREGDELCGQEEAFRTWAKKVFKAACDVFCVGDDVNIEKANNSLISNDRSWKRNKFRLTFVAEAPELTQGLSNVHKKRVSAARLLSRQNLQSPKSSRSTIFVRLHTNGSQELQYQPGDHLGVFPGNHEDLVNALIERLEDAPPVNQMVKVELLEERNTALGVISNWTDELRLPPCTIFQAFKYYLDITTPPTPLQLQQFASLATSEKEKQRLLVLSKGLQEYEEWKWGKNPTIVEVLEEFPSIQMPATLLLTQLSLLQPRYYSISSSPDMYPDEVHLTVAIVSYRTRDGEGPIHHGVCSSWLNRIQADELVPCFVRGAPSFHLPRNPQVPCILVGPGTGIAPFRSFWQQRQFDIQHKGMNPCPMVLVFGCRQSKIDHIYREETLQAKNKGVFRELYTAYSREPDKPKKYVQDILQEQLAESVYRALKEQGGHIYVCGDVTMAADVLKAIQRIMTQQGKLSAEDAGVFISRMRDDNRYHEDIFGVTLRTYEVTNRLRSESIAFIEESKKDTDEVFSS
Method: The mixture was centrifuged at 13,000 g for 1 hour and the supernatant was removed (about 2050 ml). […] The precipitate was pelleted at 13,000 g for 30 minutes and the pellet was resuspended in −400 mls of buffer A with 4 μM tetrahydrobiopterin, 1 μm FAD (Sigma), 1 μM FMN (Sigma). The solution was centrifuged at 41,000 g for 60 minutes. The supernatant was removed, frozen by pouring into liquid nitrogen, and stored overnight at −70° C. The mixture was thawed and passed through a 2′,5′ ADP-agarose column (0.4 g swelled in buffer A) at 4 ml/min. The column was washed with 100 ml buffer A, 200 ml buffer A with 500 mM NaCl, 100 ml Buffer A, then 30 ml buffer A with 5 mM NADPH. […] To the enzyme was added tetrahydrobiopterin to 10 μM, FAD and FMN to 1 μM, and tween to 0.1%. This solution was concentrated by centriprep-30 to a volume of approximately 500 μl. Human NOS was prepared completely analogously except the calmodulin-agarose column was not used.

T1 sequence (P29474 2-1203): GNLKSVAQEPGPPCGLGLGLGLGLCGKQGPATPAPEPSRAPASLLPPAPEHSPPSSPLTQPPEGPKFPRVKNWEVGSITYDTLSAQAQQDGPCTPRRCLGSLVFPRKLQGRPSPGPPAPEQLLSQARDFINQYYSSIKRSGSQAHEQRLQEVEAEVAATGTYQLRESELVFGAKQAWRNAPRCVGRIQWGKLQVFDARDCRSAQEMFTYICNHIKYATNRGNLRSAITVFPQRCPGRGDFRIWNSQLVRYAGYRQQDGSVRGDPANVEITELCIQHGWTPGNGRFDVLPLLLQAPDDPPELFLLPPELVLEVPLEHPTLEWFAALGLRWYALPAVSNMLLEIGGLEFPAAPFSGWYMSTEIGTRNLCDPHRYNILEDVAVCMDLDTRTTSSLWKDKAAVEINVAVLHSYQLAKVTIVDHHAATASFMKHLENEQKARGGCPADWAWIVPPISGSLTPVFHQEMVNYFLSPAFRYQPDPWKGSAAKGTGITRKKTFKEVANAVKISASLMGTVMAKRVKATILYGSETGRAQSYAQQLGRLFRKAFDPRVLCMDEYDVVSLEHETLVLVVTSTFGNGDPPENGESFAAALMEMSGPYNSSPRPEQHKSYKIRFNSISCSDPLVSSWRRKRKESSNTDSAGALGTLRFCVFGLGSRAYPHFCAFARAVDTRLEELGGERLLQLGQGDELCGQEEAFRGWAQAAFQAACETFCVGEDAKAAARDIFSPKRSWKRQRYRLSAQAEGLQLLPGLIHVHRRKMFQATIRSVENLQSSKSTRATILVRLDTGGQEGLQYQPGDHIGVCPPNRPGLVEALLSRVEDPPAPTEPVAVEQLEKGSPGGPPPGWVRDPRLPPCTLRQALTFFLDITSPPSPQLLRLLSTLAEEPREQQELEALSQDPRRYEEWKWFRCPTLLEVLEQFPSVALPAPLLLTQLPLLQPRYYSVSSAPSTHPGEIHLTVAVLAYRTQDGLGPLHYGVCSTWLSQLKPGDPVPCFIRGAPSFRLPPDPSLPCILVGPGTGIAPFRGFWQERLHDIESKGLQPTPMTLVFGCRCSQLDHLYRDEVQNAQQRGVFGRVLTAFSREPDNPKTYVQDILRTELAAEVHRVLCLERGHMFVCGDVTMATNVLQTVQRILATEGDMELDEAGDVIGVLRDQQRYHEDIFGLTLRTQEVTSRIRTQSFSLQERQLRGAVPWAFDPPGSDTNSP

Compound	Human Placental, percent (inhibition), concentration not given (human placental NOS) [%]	Human Inducible, percent (inhibition), concentration not given (inducible human NOS) [%]	melting point [°C]	Human Brain, percent (inhibition), concentration not given (Human brain NOS; concentration not given) [%]	inhibition at 25 µM (Human brain NOS; @ 25 μM inhibitor, read-out: Human Brain, percent (inhibition) @ 25 μM) [%]
COC(=N)Nc1ccc(C(F)(F)F)cc1 [Example 3, O-Methyl-N-(4-(trifluoromethyl)phenyl)isourea]	14	4	121 to 123	24	
N=C(Nc1ccc(C(F)(F)F)cc1)SCc1ccccc1 [Example 2A, S-Benzyl-N-[4-(trifluoromethyl)phenyl]isothiourea]	0	0	71 to 72		11
